ChEMBL document CHEMBL6083271 (J Med Chem, 2024)
The source made the active and inactive calls. No cut-off for these calls is given here.

Key:
[1] = Volume of distribution at steady state in dog at 2.5 mg/kg, iv; format: ADME, organism-based, Canis lupus familiaris; conditions: in vivo, read-out: Vdss
OCI-AML-5 = experiment: Antiproliferative activity against human OCI-AML5 cells assessed as inhibition of cell growth measured after 4 days by WST-8 assay; format: functional, cell-based; conditions: OCI-AML-5, 96 h
RS4-11 [2] = experiment: Antitumor activity against human RS4;11 cells xenografted in female NOD-SCID mouse model assessed as tumor regression at 25 mg/kg, iv measured upto 34 days by vernier method relative to control; format: functional; conditions: time <= 34 day
RS4-11 [3] = experiment: Downregulation of MDM2 protein level in human RS4;11 cells at 3 nM measured after 2 hrs in presence of lenalidomide by Western blot analysis; format: functional, cell-based
RS4-11 [4] = experiment: Antitumor activity against human RS4;11 cells xenografted in female NOD-SCID mouse model assessed as tumor regression at 25 mg/kg, iv administered every other day for 2 weeks by vernier method relative to control; format: functional
MV4-11 [5] = experiment: Upregulation of p53 level in human MV4-11 cells at 1 to 3 nM measured after 2 hrs by Western blot analysis; format: functional, cell-based; conditions: dose 1-3 nM
[6] = AUC (0 to t) in rat at 5 mg/kg, iv; format: ADME, organism-based; conditions: in vivo
[7] = Upregulation of p21 mRNA level in human RS4;11 cells assessed as fold change at 10 nM measured after 3 hrs by qRT-PCR analysis; format: functional
[8] = Volume of distribution at steady state in rat at 5 mg/kg, iv; format: ADME, organism-based; conditions: in vivo, read-out: Vdss
RS4-11 [9] = experiment: Downregulation of MDM2 level in human RS4;11 cells at 1 nM measured after 2 hrs by Western blot analysis; format: functional, cell-based
[10] = AUC (0 to t) in dog at 2.5 mg/kg, iv; format: ADME, organism-based, Canis lupus familiaris; conditions: in vivo
MV4-11 [11] = experiment: Effect on p53 mRNA level in human MV4-11 cells at 30 nM by qRT-PCR analysis; format: functional, cell-based
[12] = Clearance in mouse at 10 mg/kg, iv; format: ADME, organism-based; conditions: in vivo
[13] = Upregulation of MDM2 mRNA level in human RS4;11 cells assessed as fold change at 10 nM measured after 3 hrs by qRT-PCR analysis; format: functional
[14] = AUC (0 to t) in mouse at 10 mg/kg, iv; format: ADME, organism-based; conditions: in vivo
RS4-11 [15] = experiment: Effect of p53 mRNA level in human RS4;11 cells at 10 nM by qRT-PCR analysis; format: functional, cell-based
RS4-11 [16] = experiment: Antiproliferative activity against human RS4;11 cells assessed as inhibition of cell growth measured after 4 days in presence of lenalidomide by WST-8 assay; format: functional, cell-based; conditions: time 4.0 day
[17] = Upregulation of PUMA mRNA level in human RS4;11 cells assessed as fold change at 10 nM measured after 3 hrs by qRT-PCR analysis; format: functional
[18] = Half life in mouse at 10 mg/kg, iv; format: ADME, organism-based; conditions: in vivo
RS4-11 [19] = experiment: Antitumor activity against human RS4;11 cells xenografted in female NOD-SCID mouse model assessed as reduction in tumor size at 25 mg/kg, iv administered every other day for 2 weeks by vernier method relative to control; format: functional; design: scale not given: the % may be the effect or the level left
MOLM-14 = experiment: Antiproliferative activity against human MOLM-14 cells assessed as inhibition of cell growth measured after 4 days by WST-8 assay; format: functional, cell-based; conditions: MOLM-14, 96 h
[20] = Upregulation of p21 mRNA level in human MV4-11 cells assessed as fold increase at 30 nM by qRT-PCR analysis; format: functional
[21] = Clearance in dog at 2.5 mg/kg, iv; format: ADME, organism-based, Canis lupus familiaris; conditions: in vivo
RS4-11 [22] = experiment: Upregulation of p53 protein level in human RS4;11 cells at 3 nM measured after 2 hrs in presence of lenalidomide by Western blot analysis; format: functional, cell-based
MV4-11 [23] = experiment: Antiproliferative activity against human MV4-11 cells assessed as inhibition of cell growth measured after 4 days by WST-8 assay; format: functional, cell-based; conditions: MV4-11, 96 h
OCI-AML2 = experiment: Antiproliferative activity against human OCI-AML2 cells assessed as inhibition of cell growth measured after 4 days by WST-8 assay; format: functional, cell-based; conditions: OCI-AML2, 96 h
RS4-11 [24] = experiment: Antitumor activity against human RS4;11 cells xenografted in female NOD-SCID mouse model assessed as median survival time at 25 mg/kg, iv qw (reference value: 47.5 days); format: functional
ML-2 = experiment: Antiproliferative activity against human ML-2 cells assessed as inhibition of cell growth measured after 4 days by WST-8 assay; format: functional, cell-based; conditions: ML-2, 96 h
[25] = Clearance in rat at 5 mg/kg, iv; format: ADME, organism-based; conditions: in vivo
SIG-M5 = experiment: Antiproliferative activity against human SIG-M5 cells assessed as inhibition of cell growth measured after 4 days by WST-8 assay; format: functional, cell-based; conditions: SIG-M5, 96 h
RS4-11 [26] = experiment: Antitumor activity against human RS4;11 cells xenografted in female NOD-SCID mouse model assessed as median survival time at 50 mg/kg, iv qw (reference value: 47.5 days); format: functional
RS4-11 [27] = experiment: Upregulation of p53 level in human RS4;11 cells harbouring wild type p53 at 1 to 3 nM measured after 2 hrs by Western blot analysis; format: functional, cell-based; conditions: dose 1-3 nM
[28] = Volume of distribution at steady state in mouse at 10 mg/kg, iv; format: ADME, organism-based; conditions: in vivo, read-out: Vdss
MOLM-13 = experiment: Antiproliferative activity against human MOLM-13 cells assessed as inhibition of cell growth measured after 4 days by WST-8 assay; format: functional, cell-based; conditions: MOLM-13, 96 h
RS4-11 [29] = experiment: Antiproliferative activity against human RS4;11 cells assessed as inhibition of cell growth measured after 4 days by WST-8 assay; format: functional, cell-based; conditions: RS4-11, 96 h
[30] = Half life in rat at 5 mg/kg, iv; format: ADME, organism-based; conditions: in vivo
MV4-11 [31] = experiment: Downregulation of MDM2 level in human MV4-11 cells at 3 to 30 nM measured after 2 hrs by Western blot analysis; format: functional, cell-based; conditions: dose 3-30 nM
MV4-11 [32] = experiment: Antiproliferative activity against human MV4-11 cells assessed as inhibition of cell growth measured after 4 days in presence of lenalidomide by WST-8 assay; format: functional, cell-based; conditions: time 4.0 day
[33] = Toxicity in female NOD-SCID mouse assessed as effect on body weight at 25 mg/kg, iv qd; format: organism-based; conditions: in vivo
[34] = Half life in dog at 2.5 mg/kg, iv; format: ADME, organism-based, Canis lupus familiaris; conditions: in vivo
OCI-AML-3 = experiment: Antiproliferative activity against human OCI-AML-3 cells assessed as inhibition of cell growth measured after 4 days by WST-8 assay; format: functional, cell-based; conditions: OCI-AML-3, 96 h
[35] = Upregulation of PUMA mRNA level in human MV4-11 cells assessed as fold increase at 30 nM by qRT-PCR analysis; format: functional
MV4-11 [36] = experiment: Upregulation of p53 protein level in human MV4-11 cells at 3 nM measured after 2 hrs in presence of lenalidomide by Western blot analysis; format: functional, cell-based
MV4-11 [37] = experiment: Downregulation of MDM2 protein level in human MV4-11 cells at 3 nM measured after 2 hrs in presence of lenalidomide by Western blot analysis; format: functional, cell-based

O=C1CCC(N2Cc3c(C#CC4CCN(C(=O)[C@H]5CC[C@H](NC(=O)[C@@H]6NC7(CCCCC7)[C@@]7(C(=O)Nc8cc(Cl)ccc87)[C@H]6c6cccc(Cl)c6F)CC5)CC4)cccc3C2=O)C(=O)N1 (some centres undefined)
Vd [1]: 0.93 L/kg | IC50 (OCI-AML-5): 23 nM | Activity (RS4-11 [2]): 100% | Activity (RS4-11 [3]): inactive | Activity (RS4-11 [4]): 100% | Activity (MV4-11 [5]): Active | AUC(0-t) [6]: 13000 ng·h/mL | fold change (FC) [7]: 8 | Vd [8]: 0.15 L/kg | Activity (RS4-11 [9]): Active | AUC(0-t) [10]: 5500 ng·h/mL | Activity (MV4-11 [11]): inactive | clearance [12]: 1.1 mL/min/kg | fold change (FC) [13]: 8 | AUC(0-t) [14]: 156000 ng·h/mL | Activity (RS4-11 [15]): inactive | Activity (RS4-11 [16]): inactive | fold change (FC) [17]: 8 | half-life [18]: 6.1 h | Activity (RS4-11 [19]): >70% | IC50 (MOLM-14): 7.6 nM | fold change (FC) [20]: 10 | clearance [21]: 7.4 mL/min/kg | Activity (RS4-11 [22]): inactive | IC50 (MV4-11 [23]): 2 nM | IC50 (OCI-AML2): 24 nM | MST (RS4-11 [24]): 78.5 days | IC50 (ML-2): 1.2 nM | clearance [25]: 3.2 mL/min/kg | IC50 (SIG-M5): 20 nM | MST (RS4-11 [26]): 72 days | Activity (RS4-11 [27]): Active | Vd [28]: 0.54 L/kg | IC50 (MOLM-13): 5.7 nM | IC50 (RS4-11 [29]): 0.7 nM | half-life [30]: 5.6 h | Activity (MV4-11 [31]): Active | Activity (MV4-11 [32]): inactive | Activity [33]: Non-toxic | half-life [34]: 6.3 h | IC50 (OCI-AML-3): 212 nM | fold change (FC) [35]: 3 | Activity (MV4-11 [36]): inactive | Activity (MV4-11 [37]): inactive
